Test results published in patent US20200017496A1 (priority 2017, published 2020).
Where two headings read alike, the source gives them in different places.

Key:
Assay type in all cases: cell-based
Settings in all cases: for MIC ATB in combination: AF1 @ 4 μg/mL
[1] = test system: Proteus mirabilis (PMI) isolates; experiment: microbe, parasite or virus in culture
In short: (§1)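 Log-phase bacteria at a final 5·10^5 CFU/mL in cation-adjusted Mueller-Hinton broth were incubated 16-20 h at 35° C in ambient air with compound alone or with an antibacterial. MIC was the lowest concentration preventing visible growth; combination MIC of the antibacterial was read at each compound concentration.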

[2] = test system: Morganella morganii (MMO) isolates; experiment: MIC of compounds alone and combined with antibacterials, broth microdilution (CLSI)
In short: as §1

[3] = test system: Citrobacter koseri (CKR) isolates; experiment: as above
In short: as §1

[4] = test system: Klebsiella oxytoca (KOX) isolates; experiment: as above
In short: as §1

SMILES: NC(=O)[C@@H]1CC[C@@H]2CN1C(=O)N2OC(F)(F)C(=O)[O-].[Na+] [EA1]
- MIC ([1]; PMI UFR82, alone): >32 µg/mL
- MIC ([1]; PMI UFR120, alone): >32 µg/mL
- MIC ([1]; PMI UFR121, alone): >32 µg/mL
- MIC ([1]; PMI UFR122, alone): >32 µg/mL
- MIC ([1]; PMI UFR123, alone): >32 µg/mL
- MIC ([1]; PMI UFR124, alone): >32 µg/mL
- MIC ([1]; PMI UFR125, alone): >32 µg/mL
- MIC ([1]; PMI UFR126, alone): >32 µg/mL
- MIC ([1]; PMI UFR127, alone): >32 µg/mL
- MIC ([1]; PMI UFR129, alone): >32 µg/mL
- MIC ([1]; PMI UFR130, alone): >32 µg/mL
- MIC ([1]; PMI UFR237, alone): >32 µg/mL
- MIC ([2]; MMO 200321, alone): >32 µg/mL
- MIC ([2]; MMO UFR144, alone): >32 µg/mL
- MIC ([2]; MMO UFR240, alone): >32 µg/mL
- MIC ([2]; MMO UFR241, alone): >32 µg/mL
- MIC ([2]; MMO UFR242, alone): 128 µg/mL
- MIC ([2]; MMO UFR243, alone): >32 µg/mL
- MIC ([2]; MMO UFR244, alone): >32 µg/mL
- MIC ([2]; MMO UFR245, alone): >32 µg/mL
- MIC ([2]; MMO UFR246, alone): >32 µg/mL
- MIC ([2]; MMO UFR247, alone): 64 µg/mL
- MIC ([3]; CKO ROU, alone): 16 µg/mL
- MIC ([3]; CKO UFR149, alone): 16 µg/mL
- MIC ([3]; CKO UFR150, alone): >32 µg/mL
- MIC ([4]; KOX UFR21, alone): >32 µg/mL
- MIC ([4]; KOX UFR173, alone): >32 µg/mL
- MIC ([4]; KOX UFR223, alone): >32 µg/mL
- MIC ([4]; KOX UFR224, alone): >32 µg/mL

SMILES: CO/N=C(\C(=O)N[C@@H]1C(=O)N2C(C(=O)O)=C(COC(N)=O)CS[C@H]12)c1ccco1 [FUR, Cefuroxime]
- MIC ATB in combination ([1]; PMI UFR82): 4 µg/mL
- MIC ATB in combination ([1]; PMI UFR120): 1 µg/mL
- MIC ATB in combination ([1]; PMI UFR121): 2 µg/mL
- MIC ATB in combination ([1]; PMI UFR122): 1 µg/mL
- MIC ATB in combination ([1]; PMI UFR123): 1 µg/mL
- MIC ATB in combination ([1]; PMI UFR124): 1 µg/mL
- MIC ATB in combination ([1]; PMI UFR125): 1 µg/mL
- MIC ATB in combination ([1]; PMI UFR126): 1 µg/mL
- MIC ATB in combination ([1]; PMI UFR127): 1 µg/mL
- MIC ATB in combination ([1]; PMI UFR129): 4 µg/mL
- MIC ATB in combination ([1]; PMI UFR130): 4 µg/mL
- MIC ATB in combination ([1]; PMI UFR237): 4 µg/mL
- MIC ([1]; Proteus mirabilis, strain PMI UFR82 (CMY-2), ATB alone, read-out: MIC): 16 µg/mL
- MIC ([1]; Proteus mirabilis, strain PMI UFR120 (TEM-1, SHV-11, CTX-M-14), ATB alone, read-out: MIC): > 256 µg/mL
- MIC ([1]; Proteus mirabilis, strain PMI UFR121 (TEM-1, TEM-52), ATB alone, read-out: MIC): > 256 µg/mL
- MIC ([1]; Proteus mirabilis, strain PMI UFR122 (TEM-1, CTX-M-15), ATB alone, read-out: MIC): > 256 µg/mL
- MIC ([1]; Proteus mirabilis, strain PMI UFR123 (CTX-M-1), ATB alone, read-out: MIC): > 256 µg/mL
- MIC ([1]; Proteus mirabilis, strain PMI UFR124 (CTX-M-2), ATB alone, read-out: MIC): > 256 µg/mL
- MIC ([1]; Proteus mirabilis, strain PMI UFR125 (CTX-M-71), ATB alone, read-out: MIC): > 256 µg/mL
- MIC ([1]; Proteus mirabilis, strain PMI UFR126 (TEM-2, PER-1), ATB alone, read-out: MIC): > 256 µg/mL
- MIC ([1]; Proteus mirabilis, strain PMI UFR127 (VEB-1), ATB alone, read-out: MIC): > 256 µg/mL
- MIC ([1]; Proteus mirabilis, strain PMI UFR129 (TEM-1, VEB-6), ATB alone, read-out: MIC): > 256 µg/mL
- MIC ([1]; Proteus mirabilis, strain PMI UFR130 (CMY-2), ATB alone, read-out: MIC): 8 µg/mL
- MIC ([1]; Proteus mirabilis, strain PMI UFR237 (VEB-6), ATB alone, read-out: MIC): > 256 µg/mL
- MIC ATB in combination ([2]; MMO 200321): 128 µg/mL
- MIC ATB in combination ([2]; MMO UFR144): 32 µg/mL
- MIC ATB in combination ([2]; MMO UFR240): 16 µg/mL
- MIC ATB in combination ([2]; MMO UFR241): 32 µg/mL
- MIC ATB in combination ([2]; MMO UFR242): 32 µg/mL
- MIC ATB in combination ([2]; MMO UFR243): 32 µg/mL
- MIC ATB in combination ([2]; MMO UFR244): 16 µg/mL
- MIC ATB in combination ([2]; MMO UFR245): 32 µg/mL
- MIC ATB in combination ([2]; MMO UFR246): 64 µg/mL
- MIC ATB in combination ([2]; MMO UFR247): 16 µg/mL
- MIC ([2]; Morganella morganii, strain MMO 200321 (TEM-1, CTX-M-15, OXA-1), ATB alone): > 256 µg/mL
- MIC ([2]; Morganella morganii, strain MMO UFR144 (TEM-1, CTX-M-15), ATB alone): > 256 µg/mL
- MIC ([2]; Morganella morganii, strain MMO UFR240 (CTX-M-9), ATB alone): > 256 µg/mL
- MIC ([2]; Morganella morganii, strain MMO UFR241 (TEM-1, CTX-M-15), ATB alone): > 256 µg/mL
- MIC ([2]; Morganella morganii, strain MMO UFR242 (TEM-52), ATB alone): > 256 µg/mL
- MIC ([2]; Morganella morganii, strain MMO UFR243 (DHA-1), ATB alone, read-out: MIC): 128 µg/mL
- MIC ([2]; Morganella morganii, strain MMO UFR244 (DHA-1), ATB alone, read-out: MIC): 64 µg/mL
- MIC ([2]; Morganella morganii, strain MMO UFR245 (DHA-1), ATB alone, read-out: MIC): 128 µg/mL
- MIC ([2]; Morganella morganii, strain MMO UFR246 (DHA-1), ATB alone, read-out: MIC): 128 µg/mL
- MIC ([2]; Morganella morganii, strain MMO UFR247 (DHA-1), ATB alone, read-out: MIC): > 256 µg/mL
- MIC ATB in combination ([3]; CKO ROU): 32 µg/mL
- MIC ATB in combination ([3]; CKO UFR149): 128 µg/mL
- MIC ATB in combination ([3]; CKO UFR150): 32 µg/mL
- MIC ([3]; Citrobacter koseri, strain CKO ROU (TEM-1, SHV-12, CTX-M-15, OXA-1, OXA-48), ATB alone, read-out: MIC): 64 µg/mL
- MIC ([3]; Citrobacter koseri, strain CKO UFR149 (OXA-48), ATB alone): > 256 µg/mL
- MIC ([3]; Citrobacter koseri, strain CKO UFR150 (TEM-1, OXA-48), ATB alone, read-out: MIC): 64 µg/mL
- MIC ATB in combination ([4]; KOX UFR21): 16 µg/mL
- MIC ATB in combination ([4]; KOX UFR173): 4 µg/mL
- MIC ATB in combination ([4]; KOX UFR223): 2 µg/mL
- MIC ATB in combination ([4]; KOX UFR224): 2 µg/mL
- MIC ([4]; Klebsiella oxytoca, strain KOX UFR21 (TEM-1, CTX-M-15, OXA-48), ATB alone): > 256 µg/mL
- MIC ([4]; Klebsiella oxytoca, strain KOX UFR173 (OXY2-2), ATB alone, read-out: MIC): > 256 µg/mL
- MIC ([4]; Klebsiella oxytoca, strain KOX UFR223 (SHV-11, OXA-48), ATB alone, read-out: MIC): 8 µg/mL
- MIC ([4]; Klebsiella oxytoca, strain KOX UFR224 (CTX-M-15, OXA-48), ATB alone): > 256 µg/mL

SMILES: COCC1=C(C(=O)O)N2C(=O)[C@@H](NC(=O)/C(=N\OC)c3csc(N)n3)[C@H]2SC1 [POD, Cefpodoxime]
- MIC ATB in combination ([1]; PMI UFR82): 1 µg/mL
- MIC ATB in combination ([1]; PMI UFR120): <=0.25 μg/mL
- MIC ATB in combination ([1]; PMI UFR121): <=0.25 μg/mL
- MIC ATB in combination ([1]; PMI UFR122): <=0.25 μg/mL
- MIC ATB in combination ([1]; PMI UFR123): <=0.25 μg/mL
- MIC ATB in combination ([1]; PMI UFR124): <=0.25 μg/mL
- MIC ATB in combination ([1]; PMI UFR125): <=0.25 μg/mL
- MIC ATB in combination ([1]; PMI UFR126): <=0.25 μg/mL
- MIC ATB in combination ([1]; PMI UFR127): <=0.25 μg/mL
- MIC ATB in combination ([1]; PMI UFR129): <=0.25 μg/mL
- MIC ATB in combination ([1]; PMI UFR130): 0.5 µg/mL
- MIC ATB in combination ([1]; PMI UFR237): <=0.25 μg/mL
- MIC ATB in combination ([2]; MMO 200321): 2 µg/mL
- MIC ATB in combination ([2]; MMO UFR144): 2 µg/mL
- MIC ATB in combination ([2]; MMO UFR240): <=0.25 μg/mL
- MIC ATB in combination ([2]; MMO UFR241): 2 µg/mL
- MIC ATB in combination ([2]; MMO UFR242): 4 µg/mL
- MIC ATB in combination ([2]; MMO UFR243): 4 µg/mL
- MIC ATB in combination ([2]; MMO UFR244): <=0.25 μg/mL
- MIC ATB in combination ([2]; MMO UFR245): 2 µg/mL
- MIC ATB in combination ([2]; MMO UFR246): 4 µg/mL
- MIC ATB in combination ([2]; MMO UFR247): 1 µg/mL
- MIC ATB in combination ([3]; CKO ROU): 2 µg/mL
- MIC ATB in combination ([3]; CKO UFR149): 8 µg/mL
- MIC ATB in combination ([3]; CKO UFR150): 8 µg/mL
- MIC ATB in combination ([4]; KOX UFR21): 1 µg/mL
- MIC ATB in combination ([4]; KOX UFR173): 0.5 µg/mL
- MIC ATB in combination ([4]; KOX UFR223): <=0.25 μg/mL
- MIC ATB in combination ([4]; KOX UFR224): <=0.25 μg/mL
